Experiment [1] relates to NB12 (Neuroblastoma). As to the kind of experiment: combination Emax (second highest fraction inhibited in the dose matrix, 72 h); higher = more inhibition; extreme values may be limits of the assay. The method, boiled down: (§1)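 After 24 hours at 37°C and 5% CO2 in 1536-well plates, cells in DMEM/F12 or RPMI plus 10% FBS received two-drug dose matrices for 72 hours. Viability came from CellTiter-Glo 2.0 luminescence and was scaled as inhibition, anchored at 0 by vehicle wells and at 1 by blank wells. Combination Emax is taken as the second-highest inhibition in the matrix, and Bliss excess as the observed combination effect less EA + EB − EA·EB, with EA and EB the single-agent effects.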

Experiment [2] deals with SK-MEL-2 (Melanoma). Described as above. The method in brief:
as §1

In experiment [3] the test system is PANC-03-27 (Pancreatic Carcinoma). Kind of experiment: Bliss excess, mean over the matrix (fraction); higher = more synergy. The method in brief: as §1
For experiment [4], the system named is 23132-87 (Gastric Carcinoma). The description is as above. The method, boiled down:
as §1

Experiment [5] concerns PC-3_[JPC-3] (Lung Adenocarcinoma). The description is as above. The method in brief:
as §1

Experiment [6] deals with REH (B-Lymphoblastic Leukemia). The experiment is described as above. The method, boiled down: as §1
Experiment [7] has as its system SU-DHL-10 (B-Cell Non-Hodgkin's Lymphoma). Described as above. The method in brief: as §1
The subject of experiment [8] is NB12 (Neuroblastoma). The experiment is described as above. The method, boiled down:
as §1

For experiment [9], the system named is NCI-H2342 (Lung Adenocarcinoma). Described as above. The method, boiled down: as §1
The subject of experiment [10] is SK-MEL-2 (Melanoma). The description is as above. The method in brief: as §1

Take `CN(C)CCCOc1ccc(-c2ccc3ncc4c(c3c2)n(C2CCOCC2)c(=O)n4C)cn1` [AZD0156] + O=C(c1cc(Cc2n[nH]c(=O)c3ccccc23)ccc1F)N1CCN(C(=O)C2CC2)CC1 [Olaparib] (first compound max 3 µM, partner max 3 µM): the “combination Emax” value was found to be 0.363 in the experiment with NB12 (Neuroblastoma) [1] and 0.0599 in the experiment with SK-MEL-2 (Melanoma) [2]. Also, the Bliss excess in [3] was -0.0236; in experiment [4], 0.198; in experiment [5], -0.0349; in experiment [6] it was 0.143; in experiment [7], 0.11; in the experiment on NB12 (Neuroblastoma) [8], 0.0534. The Bliss excess in experiment [9] is -0.0504; in the experiment on SK-MEL-2 (Melanoma) [10], -0.045.

On to `C=CCn1c(=O)c2cnc(Nc3ccc(N4CCN(C)CC4)cc3)nc2n1-c1cccc(C(C)(C)O)n1` [AZD1775] + C1CN(CCC1(C(=O)N[C@@H](CCO)C2=CC=C(C=C2)Cl)N)C3=NC=NC4=C3C=CN4 [Capivasertib] (first compound max 3 µM, partner max 3 µM), for which the “combination Emax” value in the experiment on NB12 (Neuroblastoma) [1] was found to be 0.746; in the experiment with SK-MEL-2 (Melanoma) [2] it was 0.637. Moreover, the Bliss excess is -0.0573 in experiment [3]; -0.0207 in experiment [4]; -0.0534 in [5]; 0.0008 in [6]; 0.0484 in [7]; -0.0491 in the experiment on NB12 (Neuroblastoma) [8]. Moreover, the figures for the Bliss excess (in experiment [9]; in the experiment with SK-MEL-2 (Melanoma) [10]) were -0.0136 and -0.0472, respectively.

Regarding `COc1nnc2ccc(N3CCC(c4ccc(OCCN5CCN(C)C(=O)[C@H]5C)cc4)CC3)nn12` [AZD5153] + C=CCn1c(=O)c2cnc(Nc3ccc(N4CCN(C)CC4)cc3)nc2n1-c1cccc(C(C)(C)O)n1 [AZD1775] (first compound max 1 µM, partner max 1 µM), the figures for the “combination Emax” value in the experiment with NB12 (Neuroblastoma) [1] and in the experiment with SK-MEL-2 (Melanoma) [2] were 0.958 and 0.635, respectively. The Bliss excess was -0.152 in [3]; 0.0309 in [4]; -0.06 in experiment [5]; -0.0291 in experiment [6]; -0.0044 in experiment [7]; -0.0313 in the experiment on NB12 (Neuroblastoma) [8]. For the same compound, the Bliss excess in experiment [9] was -0.0347; with SK-MEL-2 (Melanoma) [10], -0.116.

Consider `CS(=O)(=O)CCNCc1ccc(-c2ccc3ncnc(Nc4ccc(OCc5cccc(F)c5)c(Cl)c4)c3c2)o1` [Lapatinib] + NC1(c2ccc(-c3nc4ccn5c(=O)[nH]nc5c4cc3-c3ccccc3)cc2)CCC1 [MK-2206] (first compound max 10 µM, 7x7, partner max 10 µM), for which the “combination Emax” value with NB12 (Neuroblastoma) [1] stood at 0.843; with SK-MEL-2 (Melanoma) [2], 0.692. Moreover, the Bliss excess in [3] was -0.0064; in [5] it was -0.0174; in experiment [6], 0.0194; in the experiment with NB12 (Neuroblastoma) [8] it was -0.0253; in [9] it was -0.0499; in the experiment with SK-MEL-2 (Melanoma) [10], -0.0096.

In the case of `COc1cccc(OCCCN)c1-c1cc(Nc2cnc(C#N)cn2)n[nH]1` [Prexasertib] + C=CCn1c(=O)c2cnc(Nc3ccc(N4CCN(C)CC4)cc3)nc2n1-c1cccc(C(C)(C)O)n1 [AZD1775] (first compound max 1 µM, partner max 1 µM), the Bliss excess is -0.0327 in experiment [3]; 0.0641 in experiment [4]; 0.0258 in experiment [5]; 0.114 in [6]; 0.0558 in experiment [7]; -0.0136 in [9].

Take `COc1cccc(OCCCN)c1-c1cc(Nc2cnc(C#N)cn2)n[nH]1` [Prexasertib] + CCc1c2c(nc3ccc(O)cc13)-c1cc3c(c(=O)n1C2)COC(=O)[C@]3(O)CC [SN-38] (first compound max 1 µM, 7x7, partner max 0.3 µM): the Bliss excess in experiment [3] is -0.0381; in [4], -0.0307; in [5], -0.0729; in experiment [6] it was -0.0054; in experiment [7], 0.035; in experiment [9], -0.0703.

For the compound `COc1cccc(OCCCN)c1-c1cc(Nc2cnc(C#N)cn2)n[nH]1` [Prexasertib] + CN(C)CCCOc1ccc(-c2ccc3ncc4c(c3c2)n(C2CCOCC2)c(=O)n4C)cn1 [AZD0156] (first compound max 1 µM, 7x7, partner max 1 µM), the Bliss excess in experiment [3] was -0.0704; in experiment [4], -0.0009; in experiment [5], -0.0526; in experiment [6], 0.0171; in experiment [7], -0.049; in experiment [9], -0.0272.

In the case of `COc1cccc(OCCCN)c1-c1cc(Nc2cnc(C#N)cn2)n[nH]1` [Prexasertib] + C[C@@H]1COCCN1C2=NC(=NC(=C2)C3(CC3)[S@](=N)(=O)C)C4=C5C=CNC5=NC=C4 [AZD6738] (first compound max 1 µM, 7x7, partner max 10 µM), the Bliss excess in experiment [3] was -0.0577; in experiment [4], -0.0085; in experiment [5], 0.0576; in [6], 0.0032; in experiment [7] it was -0.0067; in experiment [9] it was 0.0378.

As to `COc1cccc(OCCCN)c1-c1cc(Nc2cnc(C#N)cn2)n[nH]1` [Prexasertib] + Cc1cc2ncnn2cc1Nc1ncc2c(n1)n(C1CCOCC1)c(=O)n2C [AZD7648] (first compound max 1 µM, 7x7, partner max 10 µM), the Bliss excess in experiment [3] was -0.0606; in experiment [4] it was -0.0365; in experiment [5] it was -0.0103; in [6] it was -0.0041; in [7], -0.045; in experiment [9] it was -0.0216.

As to `COc1cccc(OCCCN)c1-c1cc(Nc2cnc(C#N)cn2)n[nH]1` [Prexasertib] + O=C(c1cc(Cc2n[nH]c(=O)c3ccccc23)ccc1F)N1CCN(C(=O)C2CC2)CC1 [Olaparib] (first compound max 1 µM, 7x7, partner max 10 µM), the Bliss excess is -0.0102 in [3]; -0.0503 in experiment [4]; -0.0525 in experiment [5]; -0.0271 in [6]; 0.0083 in [7]; -0.0509 in experiment [9].
